In patent publication US20230271954A1 (Gossamer Bio Services, Inc., priority 2020, published 2023):

Tests used:
DGKζ = target: T1, DGKζ (Homo sapiens, UniProt Q13574); experiment: DGKζ biochemical assay (ADP-Glo); details: read-out: DGK ζ IC50
T1 construct: purchased Carna 12-110
Experimental: (§1) Compounds of the present invention were prepared into 10 mM DMSO solution and 10 nL of stock was transferred into 384 plates (Optiplate 384 plate) using Echo550. DMSO was used as high control, and ATP substrate buffer was used as a low control. A 1× enzyme assay buffer was prepared (Hepes, pH 7.0 25 mM, BSA 0.05%, Triton-X100 0.002%, CaCl2) 1 μM, MgCl2 10 mM, DTT 2 mM). […] OAG (1-oleoyl-2-acetyl-sn-glycerol, 25 mg/ml, Avanti 8001000) and PS (10 mg/ml, Avanti 840032P) were mixed at the ratio of 1:2. A 1× substrate solution was prepared with 1× assay buffer by 100-fold dilution. The substrate solution was sonicated on ice for 1 min. The pure ATP was added to the substrate solution (DGKα:400 μM). 5 μL of the enzyme solution were added to the 384 well plate, and the plate was spun for 1 min at 1000 rpm and incubated for 30 mins at RT. 5 μL of 1× substrate solution were added to the 384 well plate, the plate was spun and then incubated for 45 mins at RT. 10 μL ADP-Glo […] was added to stop the assay. After 60 mins at RT, 20 μL ADP-Glo Detection buffer was added as the final step. Plate was read after 45 min incubation at RT.
(§2) Data analysis was performed by calculating the […] using following the formula:
(§3) [formula] • High control (Hc): DMSO/DGKα(DGKζ)/Substrate/ATP/ADP-Glo • Low Control (Lc): ATP/ADP-Glo

DGKα = DGKα (Homo sapiens, UniProt P23743); experiment: DGKα biochemical assay (ADP-Glo); details: read-out: DGK α IC50
Chain of DGKα (P23743 whole entry): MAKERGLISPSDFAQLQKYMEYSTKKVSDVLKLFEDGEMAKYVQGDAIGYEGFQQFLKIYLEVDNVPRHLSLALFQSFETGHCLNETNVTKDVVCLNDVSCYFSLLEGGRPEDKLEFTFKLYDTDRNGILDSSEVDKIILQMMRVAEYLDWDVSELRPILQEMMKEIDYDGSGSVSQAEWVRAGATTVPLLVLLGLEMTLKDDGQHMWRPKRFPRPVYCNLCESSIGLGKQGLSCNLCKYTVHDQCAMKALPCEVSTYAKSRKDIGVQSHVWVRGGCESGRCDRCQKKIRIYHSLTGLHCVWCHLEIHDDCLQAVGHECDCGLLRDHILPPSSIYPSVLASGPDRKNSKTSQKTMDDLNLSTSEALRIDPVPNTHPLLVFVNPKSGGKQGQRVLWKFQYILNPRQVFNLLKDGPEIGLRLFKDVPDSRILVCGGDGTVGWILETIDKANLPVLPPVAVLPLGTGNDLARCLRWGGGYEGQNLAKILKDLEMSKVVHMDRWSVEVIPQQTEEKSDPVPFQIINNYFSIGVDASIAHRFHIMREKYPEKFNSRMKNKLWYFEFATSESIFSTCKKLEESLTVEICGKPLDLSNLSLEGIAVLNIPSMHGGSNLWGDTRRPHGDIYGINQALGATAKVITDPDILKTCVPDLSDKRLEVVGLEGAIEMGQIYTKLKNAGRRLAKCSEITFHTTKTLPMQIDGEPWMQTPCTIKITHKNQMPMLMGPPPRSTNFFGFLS
Experimental: as §1, §2, §3

T1 sequence (Q13574 1-929 isoform Q13574-4): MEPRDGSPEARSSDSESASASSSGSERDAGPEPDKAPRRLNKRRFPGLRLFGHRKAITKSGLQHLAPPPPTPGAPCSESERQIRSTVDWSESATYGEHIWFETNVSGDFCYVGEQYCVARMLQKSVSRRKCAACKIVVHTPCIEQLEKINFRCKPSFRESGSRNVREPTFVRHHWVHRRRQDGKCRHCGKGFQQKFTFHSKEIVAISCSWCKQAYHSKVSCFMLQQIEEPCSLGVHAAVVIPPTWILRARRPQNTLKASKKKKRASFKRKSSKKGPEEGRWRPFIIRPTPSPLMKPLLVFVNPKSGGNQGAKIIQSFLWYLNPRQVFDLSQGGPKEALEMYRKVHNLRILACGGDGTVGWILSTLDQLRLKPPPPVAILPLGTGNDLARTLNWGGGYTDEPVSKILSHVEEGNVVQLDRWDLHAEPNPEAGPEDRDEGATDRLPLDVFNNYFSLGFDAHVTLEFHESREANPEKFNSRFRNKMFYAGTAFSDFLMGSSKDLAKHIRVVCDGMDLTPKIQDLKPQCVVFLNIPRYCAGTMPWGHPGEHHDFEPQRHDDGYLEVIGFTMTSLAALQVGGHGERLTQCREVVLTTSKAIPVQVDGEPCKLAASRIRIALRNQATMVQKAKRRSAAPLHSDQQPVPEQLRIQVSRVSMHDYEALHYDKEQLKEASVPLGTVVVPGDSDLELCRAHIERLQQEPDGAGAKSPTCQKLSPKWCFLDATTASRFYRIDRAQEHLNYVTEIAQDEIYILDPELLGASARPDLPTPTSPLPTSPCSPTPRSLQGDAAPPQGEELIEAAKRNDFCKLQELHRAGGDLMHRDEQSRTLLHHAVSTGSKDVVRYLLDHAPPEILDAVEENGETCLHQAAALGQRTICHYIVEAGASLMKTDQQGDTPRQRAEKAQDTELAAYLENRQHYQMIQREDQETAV

SMILES	IC50 (DGKζ) [nM]	IC50 (DGKα) [nM]
Cn1c(=O)c(C#N)c(N(C)[C@H]2CC[C@@H](N(CC3COC3)c3ccc(F)cc3)CC2)c2nc(Cl)ccc21 [Example 3M, cis-6-Chloro-4-[[4-(N-4-fluorophenyl-N-oxetan-3-ylmethylanilino)cyclohexyl]-methylamino]-1-methyl-2-oxo-1,2-dihydro-1,5-naphthyridine-3-carbonitrile]	100 to 1000	10 to 100
Cn1c(=O)c(C#N)c(N(C)[C@H]2CC[C@H](N(CC3COC3)c3ccc(F)cc3)CC2)c2nc(Cl)ccc21 [Example 3N, trans-6-Chloro-4-[[4-(N-4-fluorophenyl-N-oxetan-3-ylmethylanilino)cyclohexyl]-methylamino]-1-methyl-2-oxo-1,2-dihydro-1,5-naphthyridine-3-carbonitrile]	≥ 1000	10 to 100
Cn1c(=O)c(C#N)c(N(C)[C@H]2CC[C@H](N(CC3COC3)c3ccc(F)cc3O)CC2)c2nc(Cl)ccc21 [Example 3O, trans-6-chloro-4-((4-((4-fluoro-2-hydroxyphenyl)(oxetan-3-ylmethyl)amino)cyclohexyl)(methyl)amino)-1-methyl-2-oxo-1,2-dihydro-1,5-naphthyridine-3-carbonitrile]	≥ 1000	100 to 1000
Cn1c(=O)cc(N[C@H]2CC[C@@H](N(CC3COC3)c3ccccc3)CC2)c2nc(C#N)ccc21 [Example 3Q, cis-5-Methyl-8-((4-((oxetan-3-ylmethyl)(phenyl)amino)cyclohexyl)amino)-6-oxo-5,6-dihydro-1,5-naphthyridine-2-carbonitrile]	≥ 1000	100 to 1000
Cn1c(=O)cc(N[C@H]2CC[C@H](N(CC3CC3)c3ccc(F)cc3)CC2)c2nc(C#N)ccc21 [Example 3R, trans-8-((4-((Cyclopropylmethyl)(4-fluorophenyl)amino)cyclohexyl)amino)-5-methyl-6-oxo-5,6-dihydro-1,5-naphthyridine-2-carbonitrile]	≥ 1000	10 to 100
Cn1c(=O)cc(N(C)[C@H]2CC[C@H](N(c3ccccc3)C3CC3)CC2)c2nc(C#N)ccc21 [Example 3T, trans-8-((4-(cyclopropyl(phenyl)amino)cyclohexyl)(methyl)amino)-5-methyl-6-oxo-5,6-dihydro-1,5-naphthyridine-2-carbonitrile]	100 to 1000	100 to 1000
COc1cc(F)ccc1N(C1CC1)[C@H]1CC[C@H](N(C)c2cc(=O)n(C)c3ccc(C#N)nc23)CC1 [Example 3V]	100 to 1000	≥ 1000
COc1cc(F)ccc1N(C1CC1)[C@H]1CC[C@@H](N(C)c2cc(=O)n(C)c3ccc(C#N)nc23)CC1 [Example 3W, cis-8-[[4-(N-Cyclopropyl-4-fluoro-2-methoxy-anilino)cyclohexyl]-methyl-amino]-5-methyl-6-oxo-1,5-naphthyridine-2-carbonitrile]	100 to 1000	100 to 1000
Cn1c(=O)cc(N(C)[C@H]2CC[C@H](N(c3ccc(F)cc3O)C3CC3)CC2)c2nc(C#N)ccc21 [Example 3X, trans-8-((4-(cyclopropyl(4-fluoro-2-hydroxyphenyl)amino)cyclohexyl)(methyl)amino)-5-methyl-6-oxo-5,6-dihydro-1,5-naphthyridine-2-carbonitrile]	≥ 1000	100 to 1000
COc1cc(F)ccc1N(CC1CC1)[C@H]1CC[C@H](N(C)c2cc(=O)n(C)c3ccc(C#N)nc23)CC1 [Example 3Y, trans-8-[[4-(N-cyclopropylmethyl-N-4-fluoro-2-methoxyphenyl-anilino)cyclohexyl]-methyl-amino]-5-methyl-6-oxo-5,6-dihydro-1,5-naphthyridine-2-carbonitrile]	≥ 1000	≥ 1000
COc1cc(F)ccc1N(CC1CC1)[C@H]1CC[C@@H](N(C)c2cc(=O)n(C)c3ccc(C#N)nc23)CC1 [Example 3Z, cis-8-[[4-(N-cyclopropylmethyl-N-4-fluoro-2-methoxyphenyl-anilino)cyclohexyl]-methyl-amino]-5-methyl-6-oxo-5,6-dihydro-1,5-naphthyridine-2-carbonitrile]	100 to 1000	100 to 1000
Cc1[nH]c2ccccc2c1C(=O)N[C@H]1CC[C@@H](N(CC2CC2)c2ccccc2)CC1 [Example 4A]	≥ 1000	≥ 1000
Cc1[nH]c2ccccc2c1C(=O)N[C@H]1CC[C@H](N(CC2CC2)c2ccccc2)CC1 [Example 4B]	≥ 1000	≥ 1000
Cc1[nH]c2ccccc2c1C(=O)N[C@H]1CC[C@H](N(CC2COC2)c2ccccc2)CC1 [Example 4C, trans-2-Methyl-N-(4-((oxetan-3-ylmethyl)(phenyl)amino)cyclohexyl)-1H-indole-3-carboxamide]	≥ 1000	≥ 1000
Cc1[nH]c2ccccc2c1C(=O)N[C@H]1CC[C@@H](N(CC2COC2)c2ccccc2)CC1 [Example 4D, cis-2-Methyl-N-(4-((oxetan-3-ylmethyl)(phenyl)amino)cyclohexyl)-1H-indole-3-carboxamide]	≥ 1000	≥ 1000
Cc1[nH]c2ccccc2c1C(=O)N[C@H]1CC[C@H](N(CC2(C)COC2)c2ccccc2)CC1 [Example 4E, trans-2-Methyl-N-(4-(((3-methyloxetan-3-yl)methyl)(phenyl)amino)cyclohexyl)-1H-indole-3-carboxamide]	≥ 1000	≥ 1000
O=C(N[C@H]1CC[C@@H](N(CC2CC2)c2ccccc2)CC1)c1c[nH]c2cccnc12 [Example 4F, cis-N-(4-((Cyclopropylmethyl)(phenyl)amino)cyclohexyl)-1H-pyrrolo[3,2-b]pyridine-3-carboxamide]	≥ 1000	≥ 1000
O=C(N[C@H]1CC[C@@H](N(CC2CC2)c2ccccc2)CC1)c1cnn2cccnc12 [Example 4G, cis-N-(4-((Cyclopropylmethyl)(phenyl)amino)cyclohexyl) pyrazolo[1,5-a]pyrimidine-3-carboxamide]	≥ 1000	≥ 1000
Cn1c(=O)c(C#N)c(N(C)[C@H]2CC[C@@H](N(c3ccc(F)cc3F)C3CC3)CC2)c2nc(Cl)ccc21 [Example 5, cis-6-chloro-4-((-4-(cyclopropyl(2,4-difluorophenyl)amino)cyclohexyl)(methyl)amino)-1-methyl-2-oxo-1,2-dihydro-1,5-naphthyridine-3-carbonitrile]	≥ 1000	100 to 1000
Cn1c(=O)c(C#N)c(N(C)[C@H]2CC[C@@H](N(CC3CC3)c3ccc(Cl)cc3)CC2)c2nc(Cl)ccc21 [Example 6, cis-6-chloro-4-((4-((4-chlorophenyl) (cyclopropylmethyl)amino)cyclohexyl)(methyl)amino)-1-methyl-2-oxo-1,2-dihydro-1,5-naphthyridine-3-carbonitrile]	≥ 1000	10 to 100
Cn1c(=O)cc(N(C)[C@H]2CC[C@@H](N(CC3CC3)c3ccc(Cl)cc3)CC2)c2nc(C#N)ccc21 [Example 7, cis-8-((4-((4-chlorophenyl)(cyclopropylmethyl)amino)cyclohexyl)(methyl)amino)-5-methyl-6-oxo-5,6-dihydro-1,5-naphthyridine-2-carbonitrile]	≥ 1000	10 to 100
Cn1c(=O)c(C#N)c(N(C)[C@H]2CC[C@@H](N(CC3CC3)c3ccc(Cl)cc3)CC2)c2ncccc21 [Example 8, cis-4-((4-((4-chlorophenyl)(cyclopropylmethyl)amino)cyclohexyl)(methyl)amino)-1-methyl-2-oxo-1,2-dihydro-1,5-naphthyridine-3-carbonitrile]	≥ 1000	10 to 100
COc1cc(F)ccc1N(CC1CC1)[C@H]1CC[C@@H](N(C)c2c(C#N)c(=O)n(C)c3cccnc23)CC1 [Example 9, cis-4-((4-((cyclopropylmethyl)(4-fluoro-2-methoxyphenyl)amino)cyclohexyl)(methyl)amino)-1-methyl-2-oxo-1,2-dihydro-1,5-naphthyridine-3-carbonitrile]	≥ 1000	≥ 1000
Cn1c(=O)c(C#N)c(N(C)[C@H]2CC[C@@H](N(c3ccc(F)cc3)C3CCC3)CC2)c2nc(Cl)ccc21 [Example 10, cis-6-chloro-4-((4-(cyclobutyl(4-fluorophenyl)amino)cyclohexyl)(methyl)amino)-1-methyl-2-oxo-1,2-dihydro-1,5-naphthyridine-3-carbonitrile]	100 to 1000	< 10
COc1cccc(N(CC2CC2)[C@H]2CC[C@@H](N(C)c3c(C#N)c(=O)n(C)c4ccc(Cl)nc34)CC2)c1 [Example 11, cis-6-chloro-4-((4-((cyclopropylmethyl)(3-methoxyphenyl)amino)cyclohexyl)(methyl)amino)-1-methyl-2-oxo-1,2-dihydro-1,5-naphthyridine-3-carbonitrile]	100 to 1000	10 to 100
COc1cccc(N(CC2CC2)[C@H]2CC[C@@H](N(C)c3cc(=O)n(C)c4ccc(C#N)nc34)CC2)c1 [Example 12, cis-8-((4-((cyclopropylmethyl)(3-methoxyphenyl)amino)cyclohexyl)(methyl)amino)-5-methyl-6-oxo-5,6-dihydro-1,5-naphthyridine-2-carbonitrile]	≥ 1000	100 to 1000
